Assay results as given in publication PMC10476265, “Optimized LC-MS/MS Method for the Detection of ppCCK(21–44): A Surrogate to Monitor Human Cholecystokinin Secretion” (Journal of Proteome Research, 2023).
Where no end group is shown, it is not given here.

What was measured:
CCK1 receptor (CCK1R) = conditions: statement of the introduction; cited from earlier work
From the text: Post-translational processing of preproCCK (ppCCK), including tyrosine-sulfation in the trans-Golgi network and subsequent proteolytic cleavage by prohormone convertases and carboxypeptidase E combined with C-terminal amidation by peptidylglycine α-amidating monooxygenase[5],[6] produces a number of different bioactive CCK peptides (Figure 1). For activation of the CCK1 receptor (CCK1R), which largely mediates the peripheral outcomes described above, sulfation of the CCK peptide is critical, and the bioactive products of ppCCK, named after the number of amino acids retained in the final produc ...

[1] = tested on: cholecystokinin (CCK8) (26–33), non-sulfated enzyme immunoassay kit; conditions: reported for the kit; ref EK-069-04, Phoenix Peptide; cited from earlier work
From the text: (§1) A cholecystokinin (CCK8) (26–33), non-sulfated enzyme immunoassay kit (EK-069-04, Phoenix Peptide, Germany), with 100% reported cross-reactivity with sulfated and non-sulfated CCK8 as well as CCK33 and gastrin, was used for assay validation. The pooled human plasma potassium EDTA anticoagulant (K2EDTA, BioIVT, West Sussex, U.K.) from healthy controls was used as a matrix for the preparation of calibration standards during the clinical sample analysis.

[2] = tested on: cholecystokinin (CCK8) (26–33), non-sulfated enzyme immunoassay kit; assay: Commercial CCK8 enzyme immunoassay (EK-069-04, Phoenix Peptide): detection and cross-reactivity; format: binding; conditions: 50 to 750 pg/mL spiked in secretion buffer, SPE eluate dried and reconstituted in EIA buffer
From the text: as §1
We compared the performance of the LC-MS/MS method with a commercially available EIA (EK-069-04, Phoenix Peptide). CCK8 solutions were spiked at different concentrations either alone or in the presence of ppCCK(21–44) into secretion buffer, duplicate samples were extracted as described, and prior to EIA analysis, the SPE eluates were dried under nitrogen and reconstituted in EIA buffer. The concentrations were deduced alongside either extracted calibration curves for LC-MS/MS analysis or non-extracted standard curves as supplied in the EIA kit.

[3] = tested on: human duodenal organoid cultures; assay: Human duodenal organoid secretion assay: CCK8 and ppCCK(21–44) in supernatants and lysates by LC-MS/MS; format: cell-based; conditions: 10 μM forskolin + 1 mM glucose vs 1 mM glucose alone, 1 h, 2D human intestinal organoids; similar for both peptides; n = 12 from six experiments in duplicate
Protocol: Human duodenal organoid cultures were established for secretion assays using our established protocol.[16] To improve peptide yield, the cultures were grown in a 6-well plate format, and 400 μL of secretion buffer (0.001% fatty acid-free BSA and 1 mM glucose in saline buffer[16]) was used in the experiments.
Method development, validation, and calibration/quantitation samples were prepared by spiking working solutions of CCK8, CCK33, and ppCCK(21–44) in organoid secretion buffer. For initial CCK detection, lysed organoid cultures were prepared using 6 M guanidine hydrochloride (aq) and snap-frozen prior to extraction.
Based on the experimental design results, the extraction of CCK peptides from organoid lysate and secretion samples was adjusted from previous methods,[16],[17] as per the following steps. […]
To assess CCK secretion, we cultured human intestinal organoids in 2D cultures[16] and collected supernatants and cell lysates after 1 h incubation in either 1 mM glucose or 1 mM glucose and 10 μM forskolin, a known strong stimulus for secretion of a number of gut hormones, including CCK.[17],[18] We were unable to reliably detect sulfated CCK8 in supernatants; however, desulfated CCK8 and ppCCK(21–44) were detected under both culture conditions. […]

Compound | cross-reactivity of the EIA kit [1] [%] | other results
gastrin: closely related peptide hormone sharing the bioactive C-terminus with CCK8 | 100 | activity at CCK1R (CCK1 receptor (CCK1R)): no activity
[Pyr]-QPVPPADPAGSGLQRAEEAPRRQL-acid [ppCCK(21–44), N-terminal peptide fragment of proCCK, surrogate analyte for CCK secretion] | – | detection by EIA [2]: did not detect
C=C[C@@]1(C)CC(=O)[C@]2(O)[C@@]3(C)[C@@H](O)CCC(C)(C)[C@@H]3[C@H](O)[C@H](OC(C)=O)[C@@]2(C)O1 [forskolin] | – | fold stimulation of CCK8 and ppCCK(21–44) secretion [3]: ~2.3 fold
CCK33: 33 amino acid bioactive CCK isoform (KAPSGRMSIVKNLQNLDPSHRISDRDYMGWMDF-NH2; ends and bridges not checked; UniProt P06307 71-103, looked up) | 100 | –
non-sulfated CCK8: CCK8 without tyrosine sulfate, cross-reactant of the EIA kit | 100 | –
